Assay results from ChEMBL document CHEMBL3525934 (Drug Metab Dispos, 2013).

Tests used:
Type in all cases: ADME
Settings in all cases: 0.5 h
[1] = biological target: Cytochrome P450 2D6 (Homo sapiens, UniProt P10635); assay: Drug metabolism in supersomes expressing human recombinant CYP2D6 assessed as enzyme-mediated clozapine-N-oxide metabolite formation at 10 uM after 30 mins measured per nmol of P450 by HPLC analysis
[2] = biological target: T1, Cytochrome P450 2C18 (Homo sapiens, UniProt P33260); assay: Drug metabolism in supersomes expressing human recombinant CYP2C18 assessed as enzyme-mediated cyanide adduct formation at 100 uM after 30 mins measured per nmol of P450 by HPLC analysis in presence of KCN
T1 sequence (P33260 whole entry): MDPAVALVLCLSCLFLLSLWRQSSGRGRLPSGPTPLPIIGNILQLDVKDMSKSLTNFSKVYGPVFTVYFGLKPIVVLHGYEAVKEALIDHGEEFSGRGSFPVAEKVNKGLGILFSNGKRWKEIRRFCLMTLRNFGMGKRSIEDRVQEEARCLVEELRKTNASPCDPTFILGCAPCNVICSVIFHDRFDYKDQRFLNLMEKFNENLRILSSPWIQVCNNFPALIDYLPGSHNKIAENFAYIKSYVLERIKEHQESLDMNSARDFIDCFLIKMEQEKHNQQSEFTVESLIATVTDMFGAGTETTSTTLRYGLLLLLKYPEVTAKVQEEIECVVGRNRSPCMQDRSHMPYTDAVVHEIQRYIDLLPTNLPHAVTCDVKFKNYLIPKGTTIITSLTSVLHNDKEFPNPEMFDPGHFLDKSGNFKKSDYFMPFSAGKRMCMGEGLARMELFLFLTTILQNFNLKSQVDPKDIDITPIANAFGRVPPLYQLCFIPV

[3] = biological target: T1, Cytochrome P450 2C18; assay: Drug metabolism in supersomes expressing human recombinant CYP2C18 assessed as enzyme-mediated N-desmethylclozapine metabolite formation at 10 uM after 30 mins measured per nmol of P450 by HPLC analysis
[4] = biological target: Cytochrome P450 2C9 (Homo sapiens, UniProt P11712); assay: Drug metabolism in supersomes expressing human recombinant CYP2C9 assessed as enzyme-mediated cyanide adduct formation at 100 uM after 30 mins measured per nmol of P450 by HPLC analysis in presence of KCN
Cytochrome P450 2C9, sequence (P11712 whole entry): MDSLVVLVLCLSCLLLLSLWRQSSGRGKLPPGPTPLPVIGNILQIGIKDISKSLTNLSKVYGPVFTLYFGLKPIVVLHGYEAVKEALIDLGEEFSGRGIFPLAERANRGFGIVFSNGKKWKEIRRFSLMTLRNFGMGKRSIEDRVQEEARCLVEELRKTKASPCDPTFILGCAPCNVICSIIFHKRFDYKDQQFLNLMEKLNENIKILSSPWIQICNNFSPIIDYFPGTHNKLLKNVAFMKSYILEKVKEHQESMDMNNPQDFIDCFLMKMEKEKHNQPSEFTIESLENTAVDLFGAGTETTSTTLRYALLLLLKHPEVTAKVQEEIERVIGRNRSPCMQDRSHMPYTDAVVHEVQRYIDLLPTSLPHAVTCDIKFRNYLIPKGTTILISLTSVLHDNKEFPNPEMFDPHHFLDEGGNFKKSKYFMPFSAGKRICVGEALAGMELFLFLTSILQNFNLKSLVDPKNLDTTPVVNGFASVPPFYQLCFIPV

[5] = biological target: T1, Cytochrome P450 2C18; assay: Drug metabolism in supersomes expressing human recombinant CYP2C18 assessed as enzyme-mediated N-desmethylclozapine metabolite formation at 100 uM after 30 mins measured per nmol of P450 by HPLC analysis
[6] = biological target: T2, Cytochrome P450 2A6 (Homo sapiens, UniProt P11509); assay: Drug metabolism in supersomes expressing human recombinant CYP2A6 assessed as enzyme-mediated cyanide adduct formation at 100 uM after 30 mins measured per nmol of P450 by HPLC analysis in presence of KCN
T2 sequence (P11509 whole entry): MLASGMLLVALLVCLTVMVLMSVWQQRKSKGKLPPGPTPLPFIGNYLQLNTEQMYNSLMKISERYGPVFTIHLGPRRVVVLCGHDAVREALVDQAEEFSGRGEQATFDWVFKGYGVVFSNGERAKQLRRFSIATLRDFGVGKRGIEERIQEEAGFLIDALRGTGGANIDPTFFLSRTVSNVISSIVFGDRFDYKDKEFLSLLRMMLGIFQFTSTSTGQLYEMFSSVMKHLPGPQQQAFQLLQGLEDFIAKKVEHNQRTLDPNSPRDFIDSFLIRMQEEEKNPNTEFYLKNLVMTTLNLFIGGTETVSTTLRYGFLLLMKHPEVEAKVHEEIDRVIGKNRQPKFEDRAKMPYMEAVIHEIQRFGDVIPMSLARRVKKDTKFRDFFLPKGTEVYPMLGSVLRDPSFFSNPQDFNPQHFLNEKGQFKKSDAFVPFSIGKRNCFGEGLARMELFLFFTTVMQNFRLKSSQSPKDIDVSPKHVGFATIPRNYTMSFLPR

[7] = biological target: T3, Cytochrome P450 1A1 (Homo sapiens, UniProt P04798); assay: Drug metabolism in supersomes expressing human recombinant CYP1A1 assessed as enzyme-mediated total GSH conjugate formation at 100 uM after 30 mins measured per nmol of P450 by HPLC analysis in presence of GSH and hGST P1-1
T3 sequence (P04798 whole entry): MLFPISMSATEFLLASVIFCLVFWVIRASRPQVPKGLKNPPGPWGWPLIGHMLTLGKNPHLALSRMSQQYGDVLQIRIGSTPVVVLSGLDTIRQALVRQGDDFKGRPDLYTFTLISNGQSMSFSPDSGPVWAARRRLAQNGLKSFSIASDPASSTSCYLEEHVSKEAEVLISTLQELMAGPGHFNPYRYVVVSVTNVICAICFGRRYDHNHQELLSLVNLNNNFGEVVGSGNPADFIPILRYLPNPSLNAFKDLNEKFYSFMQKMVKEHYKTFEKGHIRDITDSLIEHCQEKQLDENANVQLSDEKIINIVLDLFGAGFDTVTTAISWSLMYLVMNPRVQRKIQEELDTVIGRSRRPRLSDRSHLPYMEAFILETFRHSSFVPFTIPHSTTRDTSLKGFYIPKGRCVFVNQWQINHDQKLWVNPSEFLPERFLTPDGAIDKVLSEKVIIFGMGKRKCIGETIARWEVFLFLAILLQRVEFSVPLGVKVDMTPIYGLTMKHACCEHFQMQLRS

[8] = biological target: T4, Cytochrome P450 1B1 (Homo sapiens, UniProt Q16678); assay: Drug metabolism in supersomes expressing human recombinant CYP1B1 assessed as enzyme-mediated clozapine-N-oxide metabolite formation at 100 uM after 30 mins measured per nmol of P450 by HPLC analysis
T4 sequence (Q16678 whole entry): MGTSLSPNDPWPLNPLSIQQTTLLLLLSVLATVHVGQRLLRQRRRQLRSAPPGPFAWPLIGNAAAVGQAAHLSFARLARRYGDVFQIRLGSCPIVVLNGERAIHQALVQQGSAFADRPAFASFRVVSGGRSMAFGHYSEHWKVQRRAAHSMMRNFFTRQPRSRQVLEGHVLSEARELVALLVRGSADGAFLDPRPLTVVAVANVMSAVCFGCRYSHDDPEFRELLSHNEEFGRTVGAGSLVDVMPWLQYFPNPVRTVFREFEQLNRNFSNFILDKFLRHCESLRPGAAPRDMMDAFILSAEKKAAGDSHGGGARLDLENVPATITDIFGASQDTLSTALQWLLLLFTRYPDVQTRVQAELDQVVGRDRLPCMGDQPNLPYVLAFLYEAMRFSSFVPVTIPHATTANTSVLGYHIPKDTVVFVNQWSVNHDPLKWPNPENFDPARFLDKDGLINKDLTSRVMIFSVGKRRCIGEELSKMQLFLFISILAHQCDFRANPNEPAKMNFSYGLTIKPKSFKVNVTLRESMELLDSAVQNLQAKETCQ

[9] = biological target: T4, Cytochrome P450 1B1; assay: Drug metabolism in supersomes expressing human recombinant CYP1B1 assessed as enzyme-mediated cyanide adduct formation at 100 uM after 30 mins measured per nmol of P450 by HPLC analysis in presence of KCN
[10] = biological target: T1, Cytochrome P450 2C18; assay: Drug metabolism in supersomes expressing human recombinant CYP2C18 assessed as enzyme-mediated clozapine-N-oxide metabolite formation at 10 uM after 30 mins measured per nmol of P450 by HPLC analysis

Cytochrome P450 2D6, sequence (P10635 whole entry): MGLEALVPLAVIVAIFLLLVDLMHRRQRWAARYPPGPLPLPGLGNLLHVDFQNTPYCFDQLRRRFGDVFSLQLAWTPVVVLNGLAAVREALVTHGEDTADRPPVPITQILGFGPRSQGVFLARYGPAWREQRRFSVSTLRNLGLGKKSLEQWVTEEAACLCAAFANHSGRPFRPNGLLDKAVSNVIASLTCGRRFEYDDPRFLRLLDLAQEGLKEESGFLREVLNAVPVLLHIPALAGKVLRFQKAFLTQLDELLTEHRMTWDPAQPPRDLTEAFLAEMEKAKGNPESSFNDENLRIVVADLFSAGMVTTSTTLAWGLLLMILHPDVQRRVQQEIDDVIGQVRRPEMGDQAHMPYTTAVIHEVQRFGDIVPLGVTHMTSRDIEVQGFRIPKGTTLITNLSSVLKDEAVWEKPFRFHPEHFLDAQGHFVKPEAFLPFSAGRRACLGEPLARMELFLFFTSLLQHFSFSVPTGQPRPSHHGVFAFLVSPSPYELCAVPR

Q: What does the source list for `CN1CCN(C2=Nc3cc(Cl)ccc3Nc3ccccc32)CC1` [CLOZAPINE]?
A: Drug metabolism [1]: 0.51 nmol/min; Drug metabolism [2]: 0.41 nmol/min; Drug metabolism [3]: 4.08 nmol/min/nmol P450; Drug metabolism [4]: 0.01 nmol/min; Drug metabolism [5]: 5.71 nmol/min/nmol P450; Drug metabolism [6]: 0.17 nmol/min; Drug metabolism [7]: 0.32 nmol/min; Drug metabolism [8]: 0.64 nmol/min/nmol P450; Drug metabolism [9]: 0.01 nmol/min; Drug metabolism [10]: 0.025 nmol/min/nmol P450
